Measurements as given in publication PMC8470274, “Comprehensive Investigation of Stereoselective Food Drug Interaction Potential of Resveratrol on Nine P450 and Six UGT Isoforms in Human Liver Microsomes” (Pharmaceutics, 2021).
Read-outs that look alike come from different tables or passages of the source.

What was measured:
[1] = biological target: T1, CYP2A6 (Homo sapiens, UniProt P11509); assay: HLM substrate cocktail, LC-MS/MS; format: biochemical; settings: coumarin 1 µM; NADPH-generating system; 0.25 mg/mL HLM; 37 °C; without 30 min preincubation; read-out: Trans-resveratrol (μM) / Without Preincubation
T1 construct: native enzyme in pooled human liver microsomes, read by coumarin 7-hydroxylation
T1 sequence (P11509 1-494): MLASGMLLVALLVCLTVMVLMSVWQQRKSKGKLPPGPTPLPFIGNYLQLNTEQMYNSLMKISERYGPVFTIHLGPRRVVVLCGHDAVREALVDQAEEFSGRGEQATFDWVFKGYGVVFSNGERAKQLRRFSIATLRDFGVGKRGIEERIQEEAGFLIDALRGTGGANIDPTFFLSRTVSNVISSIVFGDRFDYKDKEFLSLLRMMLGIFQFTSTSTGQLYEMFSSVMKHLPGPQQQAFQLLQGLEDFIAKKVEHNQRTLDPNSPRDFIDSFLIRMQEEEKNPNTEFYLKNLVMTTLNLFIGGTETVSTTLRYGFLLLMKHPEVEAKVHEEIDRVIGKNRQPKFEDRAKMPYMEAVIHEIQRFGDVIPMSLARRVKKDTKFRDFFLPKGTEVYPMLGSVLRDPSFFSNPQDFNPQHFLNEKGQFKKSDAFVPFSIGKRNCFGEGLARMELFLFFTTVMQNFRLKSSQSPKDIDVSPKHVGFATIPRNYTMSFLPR
From the text: HLM substrate cocktail, LC-MS/MS on CYP2A6

[2] = biological target: T2, CYP3A; assay: HLM inhibition kinetics, Dixon / Lineweaver-Burk, LC-MS/MS; format: biochemical, Homo sapiens; settings: midazolam 0.1-2 µM; NADPH-generating system; without preincubation; noncompetitive; read-out: trans-Resveratrol / Without Preincubation / Ki
T2 construct: gene CYP3A4; native CYP3A in pooled human liver microsomes, read by midazolam 1'-hydroxylation (nifedipine as second probe)

[3] = biological target: T3, UGT1A4 (Homo sapiens, UniProt P22310); assay: HLM UGT substrate cocktail, LC-MS/MS; format: biochemical; settings: trifluoperazine 0.5 µM; UDPGA 5 mM; alamethicin; 0.25 mg/mL HLM; 37 °C; read-out: Trans-Resveratrol
T3 construct: native enzyme in pooled human liver microsomes (alamethicin-treated), read by trifluoperazine glucuronidation
T3 sequence (P22310 29-534): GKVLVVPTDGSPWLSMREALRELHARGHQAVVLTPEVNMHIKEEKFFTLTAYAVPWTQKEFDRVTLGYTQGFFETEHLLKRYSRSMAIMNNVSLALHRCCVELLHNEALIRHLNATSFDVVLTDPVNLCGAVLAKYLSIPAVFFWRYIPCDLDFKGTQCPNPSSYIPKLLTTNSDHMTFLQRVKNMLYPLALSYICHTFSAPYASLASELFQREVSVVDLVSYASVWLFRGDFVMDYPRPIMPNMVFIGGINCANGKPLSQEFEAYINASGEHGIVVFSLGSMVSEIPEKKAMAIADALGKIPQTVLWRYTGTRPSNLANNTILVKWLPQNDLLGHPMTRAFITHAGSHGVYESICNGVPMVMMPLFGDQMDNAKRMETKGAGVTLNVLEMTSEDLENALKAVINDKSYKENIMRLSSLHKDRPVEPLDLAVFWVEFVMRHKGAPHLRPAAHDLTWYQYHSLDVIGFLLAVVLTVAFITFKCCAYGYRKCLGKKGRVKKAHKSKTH
From the text: HLM UGT substrate cocktail, LC-MS/MS on UGT1A4

[4] = biological target: T4, UGT2B7 (Homo sapiens, UniProt P16662); assay: HLM UGT substrate cocktail, LC-MS/MS; format: biochemical; settings: naloxone 0.2 µM; UDPGA 5 mM; alamethicin; 0.25 mg/mL HLM; 37 °C; read-out: Trans-Resveratrol
T4 construct: native enzyme in pooled human liver microsomes (alamethicin-treated), read by naloxone glucuronidation
T4 sequence (P16662 24-529): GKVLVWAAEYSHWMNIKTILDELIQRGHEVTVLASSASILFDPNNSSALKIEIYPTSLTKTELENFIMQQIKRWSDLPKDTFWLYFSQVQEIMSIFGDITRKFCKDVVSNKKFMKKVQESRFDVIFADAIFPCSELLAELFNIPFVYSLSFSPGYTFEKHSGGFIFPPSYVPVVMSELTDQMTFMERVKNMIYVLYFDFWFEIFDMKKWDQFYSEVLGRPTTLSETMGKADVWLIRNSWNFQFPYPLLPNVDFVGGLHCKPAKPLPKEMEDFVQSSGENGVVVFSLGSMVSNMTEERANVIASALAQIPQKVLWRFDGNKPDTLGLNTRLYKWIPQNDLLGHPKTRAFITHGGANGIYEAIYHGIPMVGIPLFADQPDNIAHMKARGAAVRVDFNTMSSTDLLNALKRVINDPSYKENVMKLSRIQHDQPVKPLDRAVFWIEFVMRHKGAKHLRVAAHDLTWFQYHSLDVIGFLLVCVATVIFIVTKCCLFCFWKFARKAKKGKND
From the text: HLM UGT substrate cocktail, LC-MS/MS on UGT2B7

[5] = biological target: T5, UGT1A6 (Homo sapiens, UniProt P19224); assay: HLM UGT substrate cocktail, LC-MS/MS; format: biochemical; settings: N-acetylserotonin 1 µM; UDPGA 5 mM; alamethicin; 0.25 mg/mL HLM; 37 °C; read-out: Trans-Resveratrol
T5 construct: native enzyme in pooled human liver microsomes (alamethicin-treated), read by N-acetylserotonin glucuronidation
T5 sequence (P19224 27-532): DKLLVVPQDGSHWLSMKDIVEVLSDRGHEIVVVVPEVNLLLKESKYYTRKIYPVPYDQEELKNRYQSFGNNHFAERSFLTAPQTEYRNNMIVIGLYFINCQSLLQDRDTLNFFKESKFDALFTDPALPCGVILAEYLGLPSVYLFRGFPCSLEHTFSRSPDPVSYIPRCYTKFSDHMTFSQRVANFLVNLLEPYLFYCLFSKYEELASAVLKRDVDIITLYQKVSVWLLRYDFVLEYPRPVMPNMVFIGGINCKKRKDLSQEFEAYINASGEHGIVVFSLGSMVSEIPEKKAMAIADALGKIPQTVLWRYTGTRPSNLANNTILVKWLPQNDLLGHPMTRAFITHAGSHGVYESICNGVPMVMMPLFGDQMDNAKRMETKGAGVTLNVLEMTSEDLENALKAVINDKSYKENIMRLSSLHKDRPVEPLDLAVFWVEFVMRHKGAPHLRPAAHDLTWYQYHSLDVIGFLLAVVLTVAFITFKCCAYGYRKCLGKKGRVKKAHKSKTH
From the text: HLM UGT substrate cocktail, LC-MS/MS on UGT1A6

[6] = biological target: T6, UGT1A3 (Homo sapiens, UniProt P35503); assay: HLM UGT substrate cocktail, LC-MS/MS; format: biochemical; settings: chenodeoxycholic acid 2 µM; UDPGA 5 mM; alamethicin; 0.25 mg/mL HLM; 37 °C; read-out: Trans-Resveratrol
T6 construct: native enzyme in pooled human liver microsomes (alamethicin-treated), read by chenodeoxycholic acid 24-glucuronidation
T6 sequence (P35503 29-534): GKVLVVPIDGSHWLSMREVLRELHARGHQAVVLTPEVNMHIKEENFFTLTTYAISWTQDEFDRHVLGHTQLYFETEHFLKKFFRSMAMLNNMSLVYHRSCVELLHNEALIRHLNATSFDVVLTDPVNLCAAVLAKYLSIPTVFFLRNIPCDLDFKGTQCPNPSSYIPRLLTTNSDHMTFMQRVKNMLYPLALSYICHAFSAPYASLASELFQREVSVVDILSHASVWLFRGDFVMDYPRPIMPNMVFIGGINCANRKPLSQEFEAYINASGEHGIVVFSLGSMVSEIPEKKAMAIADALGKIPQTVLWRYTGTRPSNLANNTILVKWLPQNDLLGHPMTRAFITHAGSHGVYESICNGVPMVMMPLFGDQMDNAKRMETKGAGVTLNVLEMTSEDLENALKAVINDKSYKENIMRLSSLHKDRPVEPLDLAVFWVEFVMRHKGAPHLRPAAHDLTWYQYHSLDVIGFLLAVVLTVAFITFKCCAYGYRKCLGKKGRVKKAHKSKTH
From the text: HLM UGT substrate cocktail, LC-MS/MS on UGT1A3

[7] = tested on: T2, CYP3A; assay: HLM substrate cocktail, LC-MS/MS; format: biochemical, Homo sapiens; settings: midazolam 0.1 µM, NADPH-generating system, 0.25 mg/mL HLM, 37 °C, without 30 min preincubation
From the text: HLM substrate cocktail, LC-MS/MS on CYP3A

[8] = biological target: T7, UGT1A1 (Homo sapiens, UniProt P22309); assay: HLM UGT substrate cocktail, LC-MS/MS; format: biochemical; settings: SN-38 0.5 µM, UDPGA 5 mM, alamethicin, 0.25 mg/mL HLM, 37 °C
T7 construct: native enzyme in pooled human liver microsomes (alamethicin-treated), read by SN-38 glucuronidation
T7 sequence (P22309 26-533): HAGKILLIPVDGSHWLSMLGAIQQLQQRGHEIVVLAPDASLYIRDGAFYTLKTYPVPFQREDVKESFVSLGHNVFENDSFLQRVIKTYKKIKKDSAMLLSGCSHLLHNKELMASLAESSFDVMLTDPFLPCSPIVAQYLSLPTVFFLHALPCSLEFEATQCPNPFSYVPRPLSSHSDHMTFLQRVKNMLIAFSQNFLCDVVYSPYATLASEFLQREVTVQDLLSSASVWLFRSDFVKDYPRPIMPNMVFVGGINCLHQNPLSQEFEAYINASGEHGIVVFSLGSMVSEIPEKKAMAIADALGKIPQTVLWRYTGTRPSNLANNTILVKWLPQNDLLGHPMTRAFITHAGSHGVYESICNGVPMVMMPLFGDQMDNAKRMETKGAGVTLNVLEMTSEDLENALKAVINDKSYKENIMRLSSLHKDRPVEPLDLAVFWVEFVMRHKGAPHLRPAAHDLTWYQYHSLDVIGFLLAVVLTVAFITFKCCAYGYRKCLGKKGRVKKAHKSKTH
From the text: HLM UGT substrate cocktail, LC-MS/MS on UGT1A1

[9] = biological target: T8, UGT1A9 (Homo sapiens, UniProt O60656); assay: HLM UGT substrate cocktail, LC-MS/MS; format: biochemical; settings: mycophenolic acid 0.2 µM; UDPGA 5 mM; alamethicin; 0.25 mg/mL HLM; 37 °C; read-out: Trans-Resveratrol
T8 construct: native enzyme in pooled human liver microsomes (alamethicin-treated), read by mycophenolic acid glucuronidation
T8 sequence (O60656 26-530): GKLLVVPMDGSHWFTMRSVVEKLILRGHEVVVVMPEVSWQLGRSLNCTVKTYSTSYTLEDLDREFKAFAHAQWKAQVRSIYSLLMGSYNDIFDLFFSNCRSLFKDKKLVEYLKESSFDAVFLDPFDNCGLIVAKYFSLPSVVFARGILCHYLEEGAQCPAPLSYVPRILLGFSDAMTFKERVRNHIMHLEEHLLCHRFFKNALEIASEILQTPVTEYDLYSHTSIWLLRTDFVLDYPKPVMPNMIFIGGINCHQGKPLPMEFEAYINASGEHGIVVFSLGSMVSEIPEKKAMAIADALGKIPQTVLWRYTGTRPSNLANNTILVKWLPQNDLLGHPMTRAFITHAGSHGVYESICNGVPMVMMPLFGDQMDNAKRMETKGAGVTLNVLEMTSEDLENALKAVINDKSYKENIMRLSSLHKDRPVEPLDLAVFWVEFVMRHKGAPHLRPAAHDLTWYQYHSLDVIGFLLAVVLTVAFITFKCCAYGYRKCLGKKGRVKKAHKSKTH
From the text: HLM UGT substrate cocktail, LC-MS/MS on UGT1A9

[10] = biological target: T7, UGT1A1; assay: HLM inhibition kinetics, Dixon / Lineweaver-Burk, LC-MS/MS; format: biochemical; settings: SN-38 0.5-10 µM; UDPGA; noncompetitive; read-out: trans-Resveratrol / Without Preincubation / Ki

Compound | IC50 [1] [µM] | Ki [2] [µM] | IC50 [3] [µM] | IC50 [4] [µM] | IC50 [5] [µM] | IC50 [6] [µM] | IC50 ([7]; read-out: Trans-resveratrol (μM) / Without Preincubation) [µM] | IC50 ([8]; read-out: Trans-Resveratrol) [µM] | IC50 [9] [µM] | Ki [10] [µM] | IC50 ([7]; read-out: Cis-resveratrol (μM) / Without Preincubation) [µM] | IC50 ([8]; read-out: Cis-Resveratrol) [µM]
Oc1ccc(/C=C/c2cc(O)cc(O)c2)cc1 [A, 3,5,4′-Trihydroxystilbene] | > 50 | 23.8 ± 2.3 | > 50 | > 50 | > 50 | > 50 | 29.2 ± 4.5 | 9.57 ± 1.6 | > 50 | 27.4 ± 3.6 |  | 
Oc1ccc(/C=C\c2cc(O)cc(O)c2)cc1 [B, 3,5,4′-Trihydroxystilbene] | > 50 |  | > 50 | > 50 | > 50 | > 50 |  |  | > 50 |  | > 50 | > 50
